Non-standard residues stand in square brackets, D forms with d. Residues, ends and D or L forms follow the SMILES beside them. dPhe(4-NO2) = N[C@H](Cc1ccc([N+](=O)[O-])cc1)C(=O)O; Nle = CCCC[C@H](N)C(=O)O

Data set [1] relates to TA-98 strain of S. typhimurium. Put plainly: Ames microbacterial assay. Particulars: for […] PLATE WITHOUT S-9 / REVERTANTS PER PLATE WITH S-9 / REVERTANTS PER PLATE WITHOUT S-9: TA-98, spontaneous revertants subtracted. As for the experimental part: The Ames microbacterial assay was used for these tests which were performed both with and without a microsomal enzyme/NADPH generating system. Briefly, this test measures the number of reverse mutations which occur in special histidine-dependent strains of Salmonella typhimurium. Positives (mutations) are scored as the number of revertant cells which are able to form colonies in a histidine-deficient growth medium after exposure to a mutagenic substance.
All substances were dissolved in sterile 0.9% sodium chloride (without preservatives) to concentrations of 10^-2, 10^-3 and 10^-4 Molar. The TA-98 strain of S. typhimurium was used and experiments were performed with and without exposure to S-9 rat liver microsomal enzymes and an NADPH generating system. This enzyme cocktail can metabolically activate some compounds to mutagenic species. In addition to the melanotropins, Doxorubicin (Adriamycin™) was also simultaneously tested. […] It was thus included to act as a positive control. […] For the actual evaluation of revertants, the identity of the specific test compound was blinded.

In another data set the test system is frog (Rana pipiens). The format is cell-based. As to the method: (§1) Biological effect on in vivo and in vitro melanosome dispersion was examined using the frog (Rana pipiens) and the lizard (Anolis caroliniensis). [See Hadley et al., Science 213:1025-1027(1981)]; similar examinations were conducted with respect to the duration of its ability to stimulate melanosome dispersion in vitro using the skin bioassay as described in Shimume, Endrochrinology, 54:553-560(1954). The in vitro results are depicted in Table I.

Data set [2] relates to lizard (Anolis caroliniensis). The format is cell-based. As for the experimental part:
as §1

The next data set deals with C57BL/6JA^y yellow mouse. Nature of the data set: subcutaneous injection, follicular melanogenesis in the yellow mouse. The class given is in vivo. From the text:
Alpha-MSH and [Nle^4 D-Phe^7 ]--alpha-MSH were synthesized. Mice (C57BL/6JA^y) originally obtained from the Jackson Laboratories (Bar Harbor, ME) were raised in our laboratory with continuous access to food and water.
Melanotropins induce melanogenesis only during hair growth, and melanosomes are continuously incorporated into cells of the hair shaft as long as the hair remains in the anagen (proliferative) phase of the hair cycle. Eumelanin synthesis in only those hairs currently growing results in the formation of a pattern showing the specific areas on the animal in the anagen phase at the time of hormone injection.

For a further data set, the system named is C57BL/6JA^y mice. Nature of the data set: topical application in PEG ointment, follicular melanogenesis in the mouse. The format is in vivo. The text has this: An area (2-3 cm^2) of hair on the posterior dorsum of 48-day old mice was plucked; in mice of this age, hair follicles in the posterior dorsum are in the telogen (resting) phase of the hair cycle. Plucking hairs from resting follicles stimulates new hair growth and by 7 days later those hairs being erupting through the skin surface. Mice were fitted with cardboard collars to prevent investigation and spread of the ointment to non-treated areas of the skin and then housed individually in cages. The ointment containing [Nle^4, D-Phe^7 -]alpha-MSH (0.5 ml, 10^-6 M) was applied daily to the plucked area at the time of new hair eruption. A sample of emerging hair was removed prior to topical application of the melanotropin and every 24 hours thereafter for seven days.
Eumelanin was not visible within hairs taken from control mice. […] Only phaeomelanosomes were present in mice treated with the control ointment containing no melanotropin.

Data set [3] has as its system Mice with some pigmentation on their skin. Nature of the data set: topical Azone cream on mice with some skin pigmentation. The format is in vivo, mouse. Particulars: 1.8% azone, MSH 0.001% or 0.003%. From the text:
Example 4 was repeated with compositions comprising alpha-MSH or [Nle^4, D--Phe^7 ]-alpha-MSH in propylene glycol and 1-dodecylazacycloheptan-2-one [a synthetic polar surfactant previously known to enhance transdermal penetration of other compounds. See, e.g., Stoughton, R. B., Arch. Dematol. 118:479(1982); Stoughton, R. B. and W. O. McClure, Drug Devel. Indust. Pharm. 9(4):725(1983); (Azone)]. Although the vehicle was a solid at room temperature, it immediately softened and spread easily when applied to the shaved skin of the mouse.
In this example, the azone concentration was 1.8% and the MSH final concentration was either 0.001% (1mg/100g cream base) or 0.003%.
Mice with some pigmentation on their skin were treated with the same cream as Example 5.
The tails of the treated animals darkened in spite of not being directly treated topically.

[4] abbreviates: single injection 0.05 ml, 10^-6 M.

Consider `COc1cccc2c1C(=O)c1c(O)c3c(c(O)c1C2=O)C[C@@](O)(C(=O)CO)C[C@@H]3O[C@H]1C[C@H](N)[C@H](O)[C@H](C)O1` [Adriamycin, Doxorubicin], for which the “[…] PLATE WITHOUT S-9” value in data set [1] (10 µg/ml) amounted to 230; in data set [1] (100 µg/ml), 1940; in data set [1] (1.0 g/ml), 0. In addition, in data set [1] (TA-98, with and without S-9), the mutagenicity in vitro entry was “significantly mutagenic”.

Take `CCCC[C@H](NC(C)=O)C(=O)N[C@@H](CCC(=O)O)C(=O)N[C@@H](Cc1c[nH]cn1)C(=O)N[C@H](Cc1ccccc1)C(=O)N[C@@H](CCCNC(=N)N)C(=O)N[C@H](Cc1c[nH]c2ccccc12)C(=O)NCC(=O)N[C@@H](CCCCN)C(N)=O` [Ac--[Nle^4 --D-Phe^7 --D-Trp^9]--alpha-MSH4-11 --NH2] (Ac-[Nle]EH[dF]R[dW]GK-NH2): the “Relative Potency Frog” value in the data set on frog (Rana pipiens) was found to be 3.17. In data set [2], the “Relative Potency Lizard” value is recorded as 10.5.

`CCCC[C@H](NC(C)=O)C(=O)N[C@@H](CCC(=O)O)C(=O)N[C@@H](Cc1c[nH]cn1)C(=O)N[C@H](Cc1ccc([N+](=O)[O-])cc1)C(=O)N[C@@H](CCCNC(=N)N)C(=O)N[C@@H](Cc1c[nH]c2ccccc12)C(=O)NCC(=O)N[C@@H](CCCCN)C(N)=O` [Ac--[Nle^4 --D-pNO2 Phe^7]-- alpha-MSH4-11 --NH2] (Ac-[Nle]EH[dPhe(4-NO2)]RWGK-NH2): the “Relative Potency Frog” value in the data set on frog (Rana pipiens) was 0.10. For the same molecule, the “Relative Potency Lizard” value in data set [2] is recorded as 4.0.

Turning to “[Nle^4, D--Phe^7 ]--alpha-MSH [[Nle^4, D-Phe^7]-alpha-MSH]”, the coat color change entry with C57BL/6JA^y yellow mouse (14 consecutive daily injections) is on record as “entire coat color was found to be changed”. In the data set with C57BL/6JA^y yellow mouse (setting [4]), the “duration of eumelanogenesis after the one injection” value is 96 h and the “time to shift from phaeomelanin production to eumelanin synthesis within hair bulbs” value was 24 h. The “time to eumelanin within hair bulbs following application” value in the data set on C57BL/6JA^y mice (topical ointment 0.5 ml, 10^-6 M daily, microscopic examination) was not above 24 h. Also, the “melanosomes within follicular melanocytes, electron microscopic examination” value in the data set on C57BL/6JA^y mice (topical ointment daily) is listed as “presence of eumelanotic melanosomes within follicular melanocytes”. For the same molecule, in data set [3], the “histologic examination of pigment” value is “increased pigment in the areas of non-follicular melancytes” and the “tail colour, tail not directly treated” value is reported as “darkened”.

Consider `CCCC[C@H](NC(C)=O)C(=O)N[C@@H](CCC(=O)O)C(=O)N[C@@H](Cc1c[nH]cn1)C(=O)N[C@@H](Cc1ccccc1)C(=O)N[C@@H](CCCNC(=N)N)C(=O)N[C@@H](Cc1c[nH]c2ccccc12)C(=O)NCC(=O)N[C@@H](CCCCN)C(N)=O` [Ac--[Nle^4]-alpha-MSH4-11 --NH2] (Ac-[Nle]EHFRWGK-NH2), for which, in the data set on frog (Rana pipiens), the “Relative Potency Frog” value was 0.0019. The “Relative Potency Lizard” value in data set [2] stood at 1.54.

`CCCC[C@H](NC(C)=O)C(=O)N[C@@H](CCC(=O)O)C(=O)N[C@@H](Cc1c[nH]cn1)C(=O)N[C@H](C)C(=O)N[C@@H](CCCNC(=N)N)C(=O)N[C@@H](Cc1c[nH]c2ccccc12)C(=O)NCC(=O)N[C@@H](CCCCN)C(N)=O` [Ac--[Nle^4 --D-Ala^7]--alpha-MSH4-11 --NH2] (Ac-[Nle]EH[dA]RWGK-NH2): in the data set with frog (Rana pipiens), the “Relative Potency Frog” value stood at 0.000080. For the same molecule, the “Relative Potency Lizard” value in data set [2] came to 0.020.

In the case of `CCCC[C@H](NC(C)=O)C(=O)N[C@@H](CCC(=O)O)C(=O)N[C@@H](Cc1c[nH]cn1)C(=O)N[C@@H](Cc1ccccc1)C(=O)N[C@@H](CCCNC(=N)N)C(=O)N[C@H](Cc1c[nH]c2ccccc12)C(=O)NCC(=O)N[C@@H](CCCCN)C(N)=O` [Ac--[Nle^4 --D-Trp^9]--alpha-MSH4-11 --NH2] (Ac-[Nle]EHFR[dW]GK-NH2), the “Relative Potency Frog” value with frog (Rana pipiens) was found to be 0.61. Besides, in data set [2], the “Relative Potency Lizard” value was determined as 1.7.

As to `CCCC[C@H](NC(C)=O)C(=O)N[C@@H](CCC(=O)O)C(=O)N[C@@H](Cc1c[nH]cn1)C(=O)N[C@H](Cc1ccccc1)C(=O)N[C@@H](CCCNC(=N)N)C(=O)N[C@@H](Cc1c[nH]c2ccccc12)C(=O)NCC(N)=O` [Ac--[Nle^4 --D-Phe^7]--alpha-MSH4-10 --NH2], the “REVERTANTS PER PLATE WITH S-9” value in data set [1] (10^-2 M), in data set [1] (10^-3 M) and in data set [1] (10^-4 M) was 0 throughout. Also, the “REVERTANTS PER PLATE WITHOUT S-9” value in data set [1] (10^-2 M), in data set [1] (10^-3 M) and in data set [1] (10^-4 M) was 0 throughout. In addition, the “Relative Potency Frog” value with frog (Rana pipiens) is 0.02.

(Values after patent US4866038A, “Method of stimulating integumental melanocytes by topical application of analogs of alpha-msh” (University Patents, Inc., priority 1988, dated 1989).)
